# Measurements: patent publication US11230556B2 (Merck Sharp & Dohme Corp., priority 2016, dated 2022)
# Target: T1, human M4 muscarinic acetylcholine receptor (Homo sapiens, UniProt P08173)
# T1 construct: expressed in transfected cells; host or cells: CHO-K1
# T1 sequence (P08173 1-479): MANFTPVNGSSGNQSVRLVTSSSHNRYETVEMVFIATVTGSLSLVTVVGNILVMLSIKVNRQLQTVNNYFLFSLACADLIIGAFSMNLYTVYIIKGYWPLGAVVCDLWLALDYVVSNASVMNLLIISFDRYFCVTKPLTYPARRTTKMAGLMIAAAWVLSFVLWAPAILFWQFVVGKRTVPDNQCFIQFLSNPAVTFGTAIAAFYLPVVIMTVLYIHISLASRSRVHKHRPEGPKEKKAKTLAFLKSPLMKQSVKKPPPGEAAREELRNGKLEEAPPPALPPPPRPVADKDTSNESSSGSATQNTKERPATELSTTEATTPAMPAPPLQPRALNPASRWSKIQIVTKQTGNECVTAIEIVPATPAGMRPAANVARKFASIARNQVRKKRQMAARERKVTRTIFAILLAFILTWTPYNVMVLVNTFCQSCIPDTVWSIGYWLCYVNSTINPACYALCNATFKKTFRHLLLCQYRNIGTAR
# Assay: human FLIPR-based M4 PAM assay (CHO-K1 cells with human M4 receptor and Gαqi5, calcium dye fluorescence, acetylcholine at 20% of maximum response)
# Assay type: cell-based
# Conditions: inflection point (IP) of 4 parameter logistic dose response curve, human M4 receptor + Gαqi5, FLIPR Tetra
# Procedure: In a typical experiment the M4 muscarinic acetylcholine receptor modulating activity of the compounds of the present invention was determined in accordance with the following experimental method. CHO-K1 cells stably transfected with human M4 receptor and chimeric G-protein Gαqi5 (Coward P, et al., Analytical Biochemistry, 270:242-248 (1999)) are thawed from liquid N2 storage, resuspended in growth medium, plated in black, clear bottom 384 well plates, and incubated 16-20 hours at 37° C., 5% CO2. On the day of assay, growth medium is removed, the cells are washed 2 times with wash buffer, and cells are incubated in dye loading buffer at 37° C., 5% CO2 for ˜1 hour. Following dye loading the cell plates are placed in a FLIPR Tetra instrument and while monitoring dye fluorescence (excitation […]), 10 uL of test substance at increasing concentrations is added, and fluorescence values are recorded for 4 min. Next, 10 uL of acetylcholine is added (final concentration calculated so as to achieve 20% of the maximum acetycholine response), and the fluorescence reading is continued for 3.5 min. In some cases, a third addition of acetylcholine (final concentration calculated to achieve 70% of the maximal acetylcholine response) is performed. The resulting dose response curves are fit to a 4 parameter logistic equation and the final result is determined as the inflection point (IP) of the curve
# CHO-K1 cells stably transfected with human M4 receptor and chimeric G-protein Gαqi5 are thawed from liquid N2 storage, resuspended in growth medium, plated in black, clear bottom 384 well plates, and incubated 16-20 hours at 37° C., 5% CO2.
# On the day of assay, growth medium is removed, the cells are washed 2 times with wash buffer, and cells are incubated in dye loading buffer at 37° C., 5% CO2 for ˜1 h. Following dye loading the cell plates are placed in a FLIPR Tetra instrument and while monitoring dye fluorescence ([…]), 10 uL of test substance at increasing concentrations is added, and fluorescence values are recorded for 4 min. Next, 10 uL of acetylcholine is added (final concentration calculated so as to achieve 20% of the maximum acetycholine response), and the fluorescence reading is continued for 3.5 min. In some cases, a third addition of acetylcholine (final concentration calculated to achieve 70% of the maximal acetylcholine response) is performed.
row,Compound,EC50
1,"COc1ccc(OC2CCN(c3nc4c(cc3C)C(O)CC4)CC2)cn1 (single isomer, unassigned) [Example 71A]",3080 nM
2,"COc1ccc(OC2CCN(c3nc4c(cc3C)C(O)CC4)CC2)cn1 (single isomer, unassigned) [Example 71B]",1050 nM
3,"Cc1cc2c(nc1N1CCC(Oc3ccc4c(c3)COC4)CC1)C1COCCN1C2=O (single isomer, unassigned) [Example 81B]",163 nM
4,"Cc1cc2c(nc1N1CCC(Oc3ccc4c(c3)COC4)CC1)C1CNCCN1C2=O (single isomer, unassigned) [Example 83A]",103 nM
5,"COc1ccc(OC2CCN(c3nc4c(cc3C)CNC4=O)CC2)cn1 [Example 1, (4-((6-Methoxypyridin-3-yl)oxy)piperidin-1-yl)-3-methyl-5H-pyrrolo[3,4-b]pyridin-7(6H)-one]",193 nM
6,"Cc1cn2c(=O)n(C)nc2nc1N1CCC(OCC2(C)CC2)CC1 [Example 3, 2,6-Dimethyl-7-(4-((1-methylcyclopropyl)methoxy)piperidin-1-yl)-[1,2,4]triazolo[4,3-a]pyrimidin-3(2H)-one]",79 nM
7,"Cc1cn2c(=O)[nH]nc2nc1N1CC[C@@H](Oc2ccc3c(cnn3C)c2)[C@@H](F)C1 [Example 5, 7-((3S,4R)-3-fluoro-4-((1-methyl-1H-indazol-5-yl)oxy)piperidin-1-yl)-6-methyl-[1,2,4]triazolo[4,3-a]pyrimidin-3(2H)-one]",62 nM
8,"Cc1cn2c(=O)[nH]nc2nc1N1CCC(Oc2ccc3c(c2)C(=O)N(C2CC2)C3)CC1 [Example 6, 7-(4-((2-cyclopropyl-3-oxoisoindolin-5-yl)oxy)piperidin-l-yl)-6-methyl-[1,2,4]triazolo[4,3-a]pyrimidin-3(2H)-one]",168 nM
9,"Cc1cn2c(=O)[nH]nc2nc1N1CC[C@@H](Oc2ccc3c(cnn3C)c2)[C@H](F)C1 [Example 7, 7-((3R,4R)-3-fluoro-4-((1-methyl-1H-indazol-5-yl)oxy)piperidin-1-yl)-6-methyl-[1,2,4]triazolo[4,3-a]pyrimidin-3(2H)-one]",138 nM
10,"Cc1cn2c(=O)[nH]nc2nc1N1CCC(OCC2CCCC2)CC1 [Example 8, 7-(4-(cyclopentylmethoxy)piperidin-1-yl)-6-methyl-[1,2,4]triazolo[4,3-a]pyrimidin-3(2H)-one]",242 nM
11,"Cc1cn2c(=O)n(C)nc2nc1N1CCC(Oc2ccc3c(cnn3C)c2)CC1 [Example 9, 2,6-dimethyl-7-(4-((1-methyl-1H-indazol-5-yl)oxy)piperidin-1-yl)-[1,2,4]triazolo[4,3-a]pyrimidin-3(2H)-one]",112 nM
12,"Cc1cn2c(=O)n(C)nc2nc1N1CC[C@@H](Oc2ccc3c(cnn3C)c2)[C@@H](F)C1 [Example 10, 7-((3S,4R)-3-fluoro-4-((1-methyl-1H-indazol-5-yl)oxy)piperidin-1-yl)-2,6-dimethyl-[1,2,4]triazolo[4,3-a]pyrimidin-3(2H)-one]",81 nM
13,"COc1ccc(OC2CCN(c3nc4nn(C)c(=O)n4cc3C)CC2)cn1 [Example 11, 7-(4-((6-methoxypyridin-3-yl)oxy)piperidin-1-yl)-2,6-dimethyl-[1,2,4]triazolo[4,3-a]pyrimidin-3(2H)-one]",87 nM
14,"Cc1cn2c(=O)n(C)nc2nc1N1CCC(OCC2CCCC2)CC1 [Example 12, 7-(4-(cyclopentylmethoxy)piperidin-1-yl)-2,6-dimethyl-[1,2,4]triazolo[4,3-a]pyrimidin-3(2H)-one]",718 nM
15,"COc1ccc(OC2CCN(c3nc4nn(CCO)c(=O)n4cc3C)CC2)cn1 [Example 14, 2-(2-hydroxyethyl)-7-(4-((6-methoxypyridin-3-yl)oxy)piperidin-1-yl)-6-methyl-[1,2,4]triazolo[4,3-a]pyrimidin-3(2H)-one]",69 nM
16,Cc1cn2c(=O)[nH]nc2nc1N1CCC(Oc2ccc3c(cnn3C)c2)CC1 [Example 18],338 nM
17,"COc1ccc(OC2CCN(c3nc4c(cc3C)COC4=O)CC2)cn1 [Example 20, 2-(4-((6-Methoxypyridin-3-yl)oxy)piperidin-1-yl)-3-methylfuro[3,4-b]pyridin-7(5H)-one]",151 nM
18,"COc1ccc(OC2CCN(c3nc4[nH][nH]c(=O)c4cc3C)CC2)cn1 [Example 23, 6-(4-((6-methoxypyridin-3-yl)oxy)piperidin-1-yl)-5-methyl-1,2-dihydro-3H-pyrazolo[3,4-b]pyridin-3-one]",68 nM
19,"COc1ccc(OC2CCN(c3nc4c(cc3C)c(=O)[nH]n4C)CC2)cn1 [Example 25, 6-(4-((6-methoxypyridin-3-yl)oxy)piperidin-1-yl)-1,5-dimethyl-1,2-dihydro-3H-pyrazolo[3,4-b]pyridin-3-one]",249 nM
20,"Cc1cc2c(=O)[nH]n(C)c2nc1N1CCC(Oc2cccc(C#N)c2)CC1 [Example 26, 3-((1-(1,5-dimethyl-3-oxo-2,3-dihydro-1H-pyrazolo[3,4-b]pyridin-6-yl)piperidin-4-yl)oxy)benzonitrile]",208 nM

# Stronger by EC50, values ahead:
row,EC50,Compound
1,57 nM,"Cc1cc2c(=O)[nH][nH]c2nc1N1CCC(Oc2cccc(C#N)c2)CC1 [Example 22, 3-((1-(5-methyl-3-oxo 2,3-dihydro-1H-pyrazolo[3,4-b]pyridin-6-yl)piperidin-4-yl)oxy)benzonitrile]"
2,55 nM,COc1ccc(OC2CCN(c3nc4n[nH]c(=O)n4cc3C)CC2)cn1 [Example 4]
3,55 nM,"Cc1cn2c(=O)[nH]nc2nc1N1CCC(Oc2ccccc2)CC1 [Example 15, 6-Methyl-7-(4-phenoxypiperidine-1-yl)-[1.2.4]triazolo[4,3-a]pyrimidin-3(2H)-one]"
4,54 nM,"COc1ccc(OC2CCN(c3nc4c(cc3C)C(=O)OC4C)CC2)cn1 (racemic) [Example 29B, (R)-2-(4-((6-Methoxypyridin-3-yl)oxy)piperidin-1-yl)-3,7-dimethylfuro[3,4-b]pyridin-5(7H)-one and (S)-2-(4-((6-methoxypyridin-3-yl)oxy)piperidin-1-yl)-3,7-dimethylfuro[3,4-b]pyridin-5(7H)-one]"
5,54 nM,"Cc1cn2c(=O)n(C)nc2nc1N1CCC(Oc2ccccc2)CC1 [Example 19, 2,6-dimethyl-7-(4-phenoxypiperidin-1-yl)-[1,2,4]triazolo[4,3-a]pyrimidin-3(2H)-one]"
6,47 nM,"Cc1cn2c(=O)n(CCO)nc2nc1N1CCC(Oc2ccc3c(c2)COC3)CC1 [Example 13, 7-(4-((1,3-Dihydro-2-benzofuran-5-yl)oxy)piperidin-1-yl)-2-(2-hydroxyethyl)-6-methyl-[1,2,4]triazolo[4,3-a]pyrimidin-3(2H)-one]"
7,39 nM,"Cc1cc2c(=O)[nH][nH]c2nc1N1CCC(Oc2ccc3cn[nH]c3c2)CC1 [Example 24, 6-(4-((1H-indazol-6-yl)oxy)piperidin-1-yl)-5-methyl-1,2-dihydro-3H-pyrazolo[3,4-b]pyridin-3-one]"
8,36 nM,"Cc1cn2c(=O)n(C)nc2nc1N1CCC(Oc2cccc(C#N)c2)CC1 [Example 17, 3-((1-(2,6-dimethyl-3-oxo-2,3-dihydro-[1,2,4]triazolo[4,3-a]pyrimidin-7-yl)piperidin-4-yl)oxy)benzonitrile]"
9,35 nM,"Cc1cn2c(=O)[nH]nc2nc1N1CCC(Oc2cccc(C#N)c2)CC1 [Example 16, 3-((1-(6-methyl-3-oxo-2,3-dihydro-[1,2,4]triazolo[4,3-a]pyrimidin-7-yl)piperidin-4-yl)oxy)benzonitrile]"
10,29 nM,"Cc1cc2c(nc1N1CCC(Oc3ccc4c(c3)COC4)CC1)C1COCCN1C2=O (single isomer, unassigned) [Example 81A]"
11,22 nM,"COc1ccc(OC2CCN(c3nc4c(cc3C)C(=O)OC4)CC2)cn1 [Example 21, 2-(4-((6-Methoxypyridin-3-yl)oxy)piperidin-1-yl)-3-methylfuro[3,4-b]pyridin-5(7H)-one]"
12,20 nM,"Cc1cn2c(=O)[nH]nc2nc1N1CCC(Oc2ccc3c(c2)COC3)CC1 [Example 2, 7-(4-((1,3-Dihydro-2-benzofuran-5-yl)oxy)piperidin-1-yl)-6-methyl-[1,2,4]triazolo[4,3-a]pyrimidin-3(2H)-one]"
